Assay results as given in the NIST ThermoML archive (doi:10.1016/j.jct.2004.09.014).

Assay: xn = mol fraction of the nth substance listed
Settings: 101.3 kPa, Liquid

CCOC(C)(C)C [2-ethoxy-2-methylpropane] + COCCO
mass density [kg/m3]
Settings	293.15 K	298.15 K	303.15 K	308.15 K	313.15 K
x1 = 0.0501	950.05	944.7	939.45	934.22	928.99
x1 = 0.1	936.06	930.57	925.31	919.94	914.61
x1 = 0.1508	921.99	916.4	911.08	905.73	900.29
x1 = 0.2	908.51	902.92	897.66	892.25	886.78
x1 = 0.2512	894.84	889.15	883.86	878.57	873.09
x1 = 0.299	882.19	876.57	871.27	865.98	860.41
x1 = 0.3489	869.14	863.45	858.24	852.9	847.36
x1 = 0.4	856.06	850.34	845.06	839.8	834.21
x1 = 0.4503	843.79	837.98	832.77	827.45	821.87
x1 = 0.499	832.46	826.63	821.36	816.1	810.51
x1 = 0.55	821.14	815.31	810.08	804.81	799.19
x1 = 0.61	808.56	802.72	797.49	792.22	786.6
x1 = 0.6599	798.66	792.76	787.53	782.25	776.65
x1 = 0.7	790.96	785.07	779.87	774.61	769.03
x1 = 0.7511	781.59	775.75	770.56	765.33	759.73
x1 = 0.8	773.01	767.18	762.01	756.8	751.25
x1 = 0.8489	764.84	759.04	753.94	748.76	743.21
x1 = 0.9	756.5	750.81	745.76	740.66	735.16
x1 = 0.949	748.89	743.23	738.32	733.24	727.78
x1 = 1	741.11	735.59	730.85	725.98	720.69

COCCOCCOCCO [2-[2-(2-methoxyethoxy)ethoxy]ethanol] + CCOC(C)(C)C
mass density [kg/m3]
Settings	293.15 K	298.15 K	303.15 K	308.15 K	313.15 K
x2 = 0	1047.29	1042.97	1038.65	1034.33	1030.01
x2 = 0.0504	1037.46	1032.75	1028.05	1023.44	1018.75
x2 = 0.1	1026.36	1021.48	1016.59	1011.83	1006.97
x2 = 0.1509	1014.18	1009.14	1004.22	999.35	994.34
x2 = 0.2025	1000.97	995.85	990.92	985.93	980.82
x2 = 0.2489	988.73	983.55	978.6	973.56	968.35
x2 = 0.3007	974.54	969.31	964.34	959.27	953.99
x2 = 0.3511	960.3	954.96	949.94	944.86	939.57
x2 = 0.3999	946.13	940.72	935.65	930.52	925.15
x2 = 0.4508	930.95	925.44	920.33	915.15	909.71
x2 = 0.5001	915.87	910.23	905.09	899.84	894.39
x2 = 0.5493	900.4	894.71	889.55	884.29	878.77
x2 = 0.6	884.14	878.36	873.18	867.9	862.36
x2 = 0.6503	867.65	861.88	856.69	851.4	845.82
x2 = 0.6998	851.17	845.39	840.21	834.91	829.29
x2 = 0.7491	834.48	828.67	823.52	818.24	812.58
x2 = 0.7999	816.94	811.16	806.01	800.74	795.06
x2 = 0.8509	798.94	793.17	788.08	782.84	777.19
x2 = 0.9001	780.97	775.22	770.16	764.98	759.37
x2 = 0.9498	761.89	756.2	751.24	746.17	740.68

COCCOCCO [2-(2-methoxyethoxy)ethanol] + CCOC(C)(C)C
mass density [kg/m3]
Settings	293.15 K	298.15 K	303.15 K	308.15 K	313.15 K
x2 = 0	1020.8	1016.4	1011.83	1007.69	1003.22
x2 = 0.0501	1008.17	1003.25	998.3	993.76	988.94
x2 = 0.1	995.15	990.04	984.9	980.19	975.19
x2 = 0.1459	982.68	977.43	972.25	967.46	962.35
x2 = 0.1998	967.77	962.42	957.22	952.39	947.16
x2 = 0.2556	951.99	946.59	941.41	936.49	931.19
x2 = 0.3031	938.38	932.91	927.71	922.72	917.37
x2 = 0.3521	924.22	918.7	913.47	908.42	902.96
x2 = 0.4004	910.16	904.58	899.35	894.26	888.75
x2 = 0.4511	895.34	889.68	884.41	879.28	873.72
x2 = 0.4998	881.09	875.34	870.08	864.91	859.34
x2 = 0.5628	862.65	856.89	851.64	846.47	840.9
x2 = 0.5997	851.96	846.15	840.91	835.75	830.21
x2 = 0.6621	833.91	828.16	822.99	817.83	812.29
x2 = 0.6997	823.14	817.44	812.33	807.17	801.6
x2 = 0.7411	811.55	805.81	800.69	795.54	790.02
x2 = 0.7995	795.39	789.63	784.53	779.35	773.85
x2 = 0.8401	784.28	778.52	773.45	768.28	762.75
x2 = 0.8998	768.16	762.41	757.39	752.25	746.7
x2 = 0.9498	754.72	748.99	744.04	738.99	733.52
